Reference: patent US10856562B2, “Flavor composition and edible compositions containing same” (MARS, INCORPORATED, priority 2013, dated 2020)
“Also recorded” adds a separate entry of the source. Square brackets hold non-standard residues; d marks the D form. Ends that are not written are not given here. pGlu = O=C1CC[C@@H](C(=O)O)N1

Legend:
[1] = test system: panelists; assay: Descriptive profile (Spectrum method) of peptide in 0.2% NaCl solution, in-mouth; type: in vivo, human; conditions: for Astringent, in-mouth perception / Bitter, in-mouth perception / Flinty/Mineral, in-mouth perception / Metallic, in-mouth perception / Numbing, in-mouth perception / Salt, in-mouth perception (mean salt perception in-mouth) / Sour, in-mouth perception / Sweet, in-mouth perception: mean score, 15-point scale; for Level of the aromatics, basic tastes and chemical feeling factors in-mouth with increasing concentration: 0.1 to 40.0/50.0 ppb; for Salt perception in-mouth as the concentration increases: 0.1 to 40.0/50.0 ppb in 0.2% NaCl; for Umami like swelling of lips and tongue, in-mouth: all levels; for Umami like feeling factor of lip and tongue swelling: both in-mouth and after expectoration
Description: Descriptive Profiles (Flavor and Chemical Feeling Factors) of five use levels of a pGlu-Val-Leu flavor composition were determined using the Spectrum™ method. The five use levels were as follows: 0.1 ppb, 0.5 ppb, 1.0 ppb, 10.0 ppb and 40.0 ppb.
Data was collected for the flavor and chemical feeling factors of the product in-mouth for each of the five use levels according to the following protocol. One replication was collected for the flavor and chemical feeling factors of the product in-mouth. 6-9 panelists evaluated per session.
2. Each panelist tasted a test sample (0.1 ppb, 0.5 ppb, 1.0 ppb, 10.0 ppb or 40.0 ppb all in 0.2% NaCl solution). Only one sample was tasted per session.
Descriptive attributes (e.g., taste, flavor and chemical feeling factors) of six use levels of pGlu-Val-Leu (SE-13), pGlu-Val (SE-14) and pGlu-Val-Val (SE-17) flavor composition peptides were determined. The six use levels were as follows: 0.1 ppb, 0.5 ppb, 1.0 ppb, 10.0 ppb, 40.0 ppb and 50.0 ppb.
Data was collected for the attributes of the product in-mouth for the use levels according to the following protocol: • The samples were analyzed for flavor and aftertaste by six-nine members of a panel, trained and experienced in appearance, flavor and texture evaluation using the Spectrum™ method. Samples in solution were evaluated across multiple panel sessions. • The strength of each attribute was rated on a 15-point scale, where 0=none and 15=very strong. • This scale incorporates the ability to use tenths of a point and therefore has the potential of 150 scale differentiations. • The scale may be expanded beyond 15 points to include extreme ratings if necessary.
Attribute Perception Protocol • The panelists evaluated each sample using the following procedure • Descriptive Profiles (flavor and chemical feeling factors) of 5 levels of salt enhancing solutions • Individual data was collected for the flavor and chemical feeling factors of the product in-mouth • Increased Salt Perception Protocol • Each panelist tasted salt 5 reference (0.35% salt solution)—to ground themselves on salt intensity of 5.0. • Each panelist tasted the test sample (0.1 ppb, 0.5 ppb, 1.0 ppb, 10.0 ppb or 40.0/50.0 ppb all in 0.2% NaCl solution: only one per session) • Each panelist then re-tasted the salt 5 reference and rated it for salt intensity as well as any other basic taste, chemical feeling factor, or aromatic perceived. This captured any increased salt perception indicated by the test sample as well as any other perceptions present. • Return to Baseline Protocol • After evaluating the sample for salt & other perceptions, panelists re-tasted the salt 5 reference at 1 minute intervals until their perception of the salt 5 saltiness intensity had returned to 5.0. Each panelist recorded their salt intensity at each interval and took qualitative notes on other perceptions seen in aftertaste. Sample Preparation
The 0.1, 0.5, 1.0 10, 40, and 50 ppb test samples of the flavor composition peptides were prepared in water as described in table 4.
The panelists evaluated each sample for the attributes described in table 5.

[2] = test system: panel of trained tasters; assay: Saltiness of sodium-reduced pasta sauce with peptides, panel of trained tasters; type: in vivo, human
Description: Food product compositions were prepared by admixing flavor composition peptide(s) of the present application with food compositions, wherein the level of sodium (NaCl) in the food product compositions was reduced. The level of sodium was reduced by 25%, 50% or 75% compared to food products compositions that were not admixed with flavor composition peptides. The food product compositions comprising the flavor composition peptides were tasted by a panel of trained tasters and the level of saltiness was compared to the control food products.
The peptides pGlu-Val-Leu (identified as “SE-13”), pGlu-Val-Cys (identified as “UE-30”) and pGlu-Val-Val (identified as “SE-17”) were tested in Pasta Sauce. The control pasta sauce comprised 540 mg sodium (NaCl) in a 125 g serving.

[pGlu]-Val-Leu [SE-13]
Astringent, in-mouth perception ([1]; 0.1 ppb in 0.2% NaCl): 0.0
Bitter, in-mouth perception ([1]; 0.1 ppb in 0.2% NaCl): 0.0
Flinty/Mineral, in-mouth perception ([1]; 0.1 ppb in 0.2% NaCl): 0.1
Metallic, in-mouth perception ([1]; 0.1 ppb in 0.2% NaCl): 0.1
Numbing, in-mouth perception ([1]; 0.1 ppb in 0.2% NaCl): 0.0
Salt, in-mouth perception (mean salt perception in-mouth) ([1]; 0.1 ppb in 0.2% NaCl): 2.3
Sour, in-mouth perception ([1]; 0.1 ppb in 0.2% NaCl): 0.0
Sweet, in-mouth perception ([1]; 0.1 ppb in 0.2% NaCl): 0.0
Level of the aromatics, basic tastes and chemical feeling factors in-mouth with increasing concentration [1]: does not increase
Salt perception in-mouth as the concentration increases [1]: does not increase notably; also recorded: Does not show a notable increase
Salt perception in-mouth as the concentration increases ([1]; listed as pGlu-Val-Leu): did not significantly increase
Astringent, in-mouth perception ([1]; 0.5 ppb in 0.2% NaCl): 0.0
Bitter, in-mouth perception ([1]; 0.5 ppb in 0.2% NaCl): 0.0
Flinty/Mineral, in-mouth perception ([1]; 0.5 ppb in 0.2% NaCl): 0.3
Metallic, in-mouth perception ([1]; 0.5 ppb in 0.2% NaCl): 0.3
Numbing, in-mouth perception ([1]; 0.5 ppb in 0.2% NaCl): 0.0
Salt, in-mouth perception (mean salt perception in-mouth) ([1]; 0.5 ppb in 0.2% NaCl): 2.8
Sour, in-mouth perception ([1]; 0.5 ppb in 0.2% NaCl): 0.0
Sweet, in-mouth perception ([1]; 0.5 ppb in 0.2% NaCl): 0.2
Astringent, in-mouth perception ([1]; 1.0 ppb in 0.2% NaCl): 0.0
Bitter, in-mouth perception ([1]; 1.0 ppb in 0.2% NaCl): 0.0
Flinty/Mineral, in-mouth perception ([1]; 1.0 ppb in 0.2% NaCl): 0.5
Metallic, in-mouth perception ([1]; 1.0 ppb in 0.2% NaCl): 0.1
Numbing, in-mouth perception ([1]; 1.0 ppb in 0.2% NaCl): 0.0
Salt, in-mouth perception (mean salt perception in-mouth) ([1]; 1.0 ppb in 0.2% NaCl): 2.3
Sour, in-mouth perception ([1]; 1.0 ppb in 0.2% NaCl): 0.0
Sweet, in-mouth perception ([1]; 1.0 ppb in 0.2% NaCl): 0.0
Astringent, in-mouth perception ([1]; 10.0 ppb in 0.2% NaCl): 0.0
Bitter, in-mouth perception ([1]; 10.0 ppb in 0.2% NaCl): 0.0
Flinty/Mineral, in-mouth perception ([1]; 10.0 ppb in 0.2% NaCl): 0.3
Metallic, in-mouth perception ([1]; 10.0 ppb in 0.2% NaCl): 0.1
Numbing, in-mouth perception ([1]; 10.0 ppb in 0.2% NaCl): 0.0
Salt, in-mouth perception (mean salt perception in-mouth) ([1]; 10.0 ppb in 0.2% NaCl): 3.1
Sour, in-mouth perception ([1]; 10.0 ppb in 0.2% NaCl): 0.0
Sweet, in-mouth perception ([1]; 10.0 ppb in 0.2% NaCl): 0.0
Astringent, in-mouth perception ([1]; 40.0 ppb in 0.2% NaCl): 0.0
Bitter, in-mouth perception ([1]; 40.0 ppb in 0.2% NaCl): 0.0
Flinty/Mineral, in-mouth perception ([1]; 40.0 ppb in 0.2% NaCl): 0.4
Metallic, in-mouth perception ([1]; 40.0 ppb in 0.2% NaCl): 0.1
Numbing, in-mouth perception ([1]; 40.0 ppb in 0.2% NaCl): 0.0
Salt, in-mouth perception (mean salt perception in-mouth) ([1]; 40.0 ppb in 0.2% NaCl): 2.8
Sour, in-mouth perception ([1]; 40.0 ppb in 0.2% NaCl): 0.0
Sweet, in-mouth perception ([1]; 40.0 ppb in 0.2% NaCl): 0.0
Umami like swelling of lips and tongue, in-mouth [1]: Panelists also experience Umami like swelling of lips and tongue
Umami like feeling factor of lip and tongue swelling [1]: Shows umami like feeling factor of lip and tongue swelling
Saltiness compared to control at 25% reduction ([2]; 25% sodium reduction, 10 and 1 ppb, n=4): to control, slightly less salty.
Saltiness compared to control ([2]; control 540 mg Na/serving, test 25, 50, 75% reduction, 10 ppb and 1 ppb, n=4): Test variables perceived less

[pGlu]-Val-Val [SE-17]
Astringent, in-mouth perception ([1]; 0.1 ppb in 0.2% NaCl): 0.0
Bitter, in-mouth perception ([1]; 0.1 ppb in 0.2% NaCl): 0.0
Flinty/Mineral, in-mouth perception ([1]; 0.1 ppb in 0.2% NaCl): 0.7
Metallic, in-mouth perception ([1]; 0.1 ppb in 0.2% NaCl): 0.0
Numbing, in-mouth perception ([1]; 0.1 ppb in 0.2% NaCl): 0.0
Salt, in-mouth perception (mean salt perception in-mouth) ([1]; 0.1 ppb in 0.2% NaCl): 3.1
Sour, in-mouth perception ([1]; 0.1 ppb in 0.2% NaCl): 0.0
Sweet, in-mouth perception ([1]; 0.1 ppb in 0.2% NaCl): 0.0
Level of the aromatics, basic tastes and chemical feeling factors in-mouth with increasing concentration [1]: does not increase
Salt perception in-mouth as the concentration increases [1]: does not increase notably; also recorded: Does not show a notable increase; also recorded: did not necessarily increase
Astringent, in-mouth perception ([1]; 0.5 ppb in 0.2% NaCl): 0.0
Bitter, in-mouth perception ([1]; 0.5 ppb in 0.2% NaCl): 0.0
Flinty/Mineral, in-mouth perception ([1]; 0.5 ppb in 0.2% NaCl): 0.8
Metallic, in-mouth perception ([1]; 0.5 ppb in 0.2% NaCl): 0.3
Numbing, in-mouth perception ([1]; 0.5 ppb in 0.2% NaCl): 0.0
Salt, in-mouth perception (mean salt perception in-mouth) ([1]; 0.5 ppb in 0.2% NaCl): 4.0
Sour, in-mouth perception ([1]; 0.5 ppb in 0.2% NaCl): 0.0
Sweet, in-mouth perception ([1]; 0.5 ppb in 0.2% NaCl): 0.0
Astringent, in-mouth perception ([1]; 1.0 ppb in 0.2% NaCl): 0.0
Bitter, in-mouth perception ([1]; 1.0 ppb in 0.2% NaCl): 0.0
Flinty/Mineral, in-mouth perception ([1]; 1.0 ppb in 0.2% NaCl): 0.5
Metallic, in-mouth perception ([1]; 1.0 ppb in 0.2% NaCl): 0.0
Numbing, in-mouth perception ([1]; 1.0 ppb in 0.2% NaCl): 0.0
Salt, in-mouth perception (mean salt perception in-mouth) ([1]; 1.0 ppb in 0.2% NaCl): 2.8
Sour, in-mouth perception ([1]; 1.0 ppb in 0.2% NaCl): 0.0
Sweet, in-mouth perception ([1]; 1.0 ppb in 0.2% NaCl): 0.0
Astringent, in-mouth perception ([1]; 10.0 ppb in 0.2% NaCl): 0.0
Bitter, in-mouth perception ([1]; 10.0 ppb in 0.2% NaCl): 0.0
Flinty/Mineral, in-mouth perception ([1]; 10.0 ppb in 0.2% NaCl): 0.5
Metallic, in-mouth perception ([1]; 10.0 ppb in 0.2% NaCl): 0.0
Numbing, in-mouth perception ([1]; 10.0 ppb in 0.2% NaCl): 0.0
Salt, in-mouth perception (mean salt perception in-mouth) ([1]; 10.0 ppb in 0.2% NaCl): 3.6
Sour, in-mouth perception ([1]; 10.0 ppb in 0.2% NaCl): 0.0
Sweet, in-mouth perception ([1]; 10.0 ppb in 0.2% NaCl): 0.0
Astringent, in-mouth perception ([1]; 50.0 ppb in 0.2% NaCl): 0.0
Bitter, in-mouth perception ([1]; 50.0 ppb in 0.2% NaCl): 0.0
Flinty/Mineral, in-mouth perception ([1]; 50.0 ppb in 0.2% NaCl): 0.5
Metallic, in-mouth perception ([1]; 50.0 ppb in 0.2% NaCl): 0.0
Numbing, in-mouth perception ([1]; 50.0 ppb in 0.2% NaCl): 0.0
Salt, in-mouth perception (mean salt perception in-mouth) ([1]; 50.0 ppb in 0.2% NaCl): 3.9
Sour, in-mouth perception ([1]; 50.0 ppb in 0.2% NaCl): 0.0
Sweet, in-mouth perception ([1]; 50.0 ppb in 0.2% NaCl): 0.0
Umami like swelling of lips and tongue, in-mouth [1]: Some panelists also experience Umami like swelling of lips and tongue
Umami like feeling factor of lip and tongue swelling [1]: Shows umami like feeling factor of lip and tongue swelling
Levels of salt perception in-mouth, comparison of SE-13, SE-14 and SE-17 ([1]; overall): highest levels
Saltiness compared to control ([2]; control 540 mg, test 405 mg Na, SE-13 or SE-17 10 ppb, UE-30 1 ppb, n=4): significantly less salty than
Salt enhancement ([2]; test 405 mg Na, SE-17 10 ppb, UE-30 1 ppb): UE-30 did not provide a big
